The subject of data set [1] is MCF-7 breast adenocarcinoma cells. The experiment in a line: MTT cell viability assay, MCF-7. To be noted: for viability at 10 µM / IC50: Homo sapiens, MCF7, 72 h; for viability at 10 µM: read-out: cell viability percentage in relation to control, MCF-7; for IC50: read-out: IC50 MCF-7, MCF-7, 72 h incubation, MTT; for SI MCF-7 (selectivity index versus NHDF): MCF-7 versus NHDF, 72 h. The method, then:
(§1) To evaluate the anticancer potential of monomethine cyanine dyes 1–12, a cell proliferation study was conducted using the 3-(4,5-dimethylthiazol-2-yl)-2,5-diphenyltetrazolium bromide (MTT) assay. For this preliminary evaluation, a concentration of 10 µM for each dye was tested, with the well-established chemotherapy agent 5-fluorouracil (5-FU) serving as a positive control. The assay included normal human dermal fibroblasts (NHDF) as non-tumor cells, alongside tumor cell lines from colorectal (Caco-2), prostate (PC-3), and breast (MCF-7) adenocarcinomas.
(§2) The cell lines used in this study (Caco-2, MCF-7, PC-3, and NHDF) were obtained from the American Type Culture Collection (ATCC, Manassas, VA, USA) and cultured in 75 cm^2 culture flasks at 37 °C in a humidified atmosphere with 5% CO2 in a LEEC Culture Safe Precision CO2 Incubator. PC-3 cells were grown in Roswell Park Memorial Institute (RPMI) medium supplemented with 10% of inactivated Fetal Bovine Serum (FBS) and 1% of an antibiotic mixture (Sp; 10,000 U/mL of penicillin G and […] of streptomycin). MCF-7 and Caco-2 cell lines were both cultured using Dulbecco’s Modified Eagle Medium (DMEM). However, the medium for MCF-7 cells was complemented with 10% of inactivated FBS and 1% of antibiotic/antimycotic mixture (Ab; 10,000 U/mL of penicillin G, […] of streptomycin and 25 µg/mL of amphotericin B), and the medium for Caco-2 cells was supplemented with 20% of inactivated FBS and 1% of Sp. Finally, RPMI medium supplemented with 10% FBS, 2 mM of L-glutamine, 10 mM of 4-(2-hydroxyethyl)-1-piperazineethanesulfonic acid (HEPES), 1 mM of sodium pyruvate, and 1% of Ab was used to culture NHDF cells. The culture media were renewed every two to three days until near confluence was achieved. Then, cells were detached using a solution of 0.125 g/L of trypsin and 0.02 g/L of ethylenediaminetetracetic acid (EDTA), counted by the trypan blue method, resuspended, and adequately seeded to continue the culture in 75 cm^2 flasks or for the experiments described below. All manipulations were performed in a Labculture Class II A2 Biological Safety Cabinet.
(§3) After trypsinization, cells were seeded in 96-well culture plates (100 µL; 2 × 10^4 cells/mL), and after 48 h (for adherence), they were incubated with the compounds under study in the absence of light for a duration of 72 h. Then, the medium was removed, and fresh incomplete culture medium (without FBS and Ab or Sp) and MTT solution [5 mg/mL in phosphate buffer saline (PBS)] were added to each well, followed by 4 h of incubation. After this, the medium containing MTT was removed and DMSO was added to dissolve formazan crystals. The absorbance of each well at 570 nm was determined using a microplate spectrophotometer Bio-Rad (Hercules, CA, USA) xMark. Untreated cells were considered the negative control, and 5-FU, a clinically used drug, was considered the positive control. For data analysis, the relative cell proliferation relative to the negative control cells was calculated. For each cell viability study, at least two independent assays in quadruplicate were performed. Increasing concentrations of the compounds between 0.001 and 100 μM were used to determine the IC50 values.
(In general: Formazan colour is commonly taken as a measure of viable cells.)

Data set [2] relates to Caco-2 colorectal adenocarcinoma cells. The experiment in a line: MTT cell viability assay, Caco-2. To be noted: Homo sapiens, Caco-2, 72 h; for IC50: read-out: IC50 Caco-2; for viability at 10 µM: read-out: cell viability percentage in relation to control, Caco-2. The method, then: as §1, §2, §3
A short description of data set [3]: MTT cell viability assay, Caco-2. To be noted: human. The method, then: as §1, §2, §3
Data set [4] concerns PC-3 prostate adenocarcinoma cells. Kind of data set: MTT cell viability assay, PC-3. The settings on record: for viability at 10 µM: read-out: cell viability percentage in relation to control, PC-3; for SI PC-3 (selectivity index versus NHDF): PC-3 versus NHDF. The method, then:
as §1, §2, §3

Data set [5] relates to normal human dermal fibroblasts (NHDF). Kind of data set: MTT cell viability assay, NHDF. Format: cell-based. The settings on record: Homo sapiens, NHDF, read-out: IC50 NHDF.
Description: (§4) The cell lines used in this study (Caco-2, MCF-7, PC-3, and NHDF) were obtained from the American Type Culture Collection (ATCC, Manassas, VA, USA) and cultured in 75 cm^2 culture flasks at 37 °C in a humidified atmosphere with 5% CO2 in a LEEC Culture Safe Precision CO2 Incubator. PC-3 cells were grown in Roswell Park Memorial Institute (RPMI) medium supplemented with 10% of inactivated Fetal Bovine Serum (FBS) and 1% of an antibiotic mixture (Sp; 10,000 U/mL of penicillin G and 100 mg/mL of streptomycin). MCF-7 and Caco-2 cell lines were both cultured using Dulbecco’s Modified Eagle Medium (DMEM). However, the medium for MCF-7 cells was complemented with 10% of inactivated FBS and 1% of antibiotic/antimycotic mixture (Ab; 10,000 U/mL of penicillin G, 100 mg/mL of streptomycin and 25 µg/mL of amphotericin B), and the medium for Caco-2 cells was supplemented with 20% of inactivated FBS and 1% of Sp. Finally, RPMI medium supplemented with 10% FBS, 2 mM of L-glutamine, 10 mM of 4-(2-hydroxyethyl)-1-piperazineethanesulfonic acid (HEPES), 1 mM of sodium pyruvate, and 1% of Ab was used to culture NHDF cells. The culture media were renewed every two to three days until near confluence was achieved. Then, cells were detached using a solution of 0.125 g/L of trypsin and 0.02 g/L of ethylenediaminetetracetic acid (EDTA), counted by the trypan blue method, resuspended, and adequately seeded to continue the culture in 75 cm^2 flasks or for the experiments described below. All manipulations were performed in a Labculture Class II A2 Biological Safety Cabinet.
The nature of data set [6]: MTT cell viability assay, NHDF. The data set is classed as cell-based, human. The settings on record: human, 10 µM, 72 h, mean ± SD, read-out: cell viability percentage in relation to control, NHDF.
Description: as §4
Where [7] appears, read: Caco-2, SI Caco-2 (selectivity index, cancer versus non-cancer cell line NHDF), Caco-2 versus NHDF, 72 h.
Where [8] appears, read: 72 h incubation, MTT, absence of light.
Where [9] appears, read: normal human dermal fibroblasts (NHDF).
Where [10] appears, read: Homo sapiens, 72 h, read-out: IC50 PC-3, PC-3, 72 h incubation, MTT.

Where two headings read alike, the source gives them in different places.

By melting point is commonly meant the temperature of the solid-liquid transition. One may read the viability as a read-out of living cells in per cent, often relative to untreated cells. One may read the IC50 as the concentration that inhibits the measured activity by half. In turn, `CCCCCN1C(=Cc2sc3ccccc3[n+]2C)Sc2ccccc21.[I-]` [Dye 1, 3-Methyl-2-((3-pentylbenzo[d]thiazol-2(3H)-ylidene)methyl)benzo[d]thiazol-3-ium iodide] came in with a melting point of 254 to 258 °C. For the same compound, the viability at 10 µM in data set [1] was determined as 0.87 ± 1.05%. In data set [2], the IC50 is 360 nM and the viability at 10 µM is 1.37 ± 0.08%. For the same compound, the selectivity ratio at 72 h in data set [3] (setting [7]) came to 1.5. In data set [4] (Homo sapiens, 72 h), the viability at 10 µM came out at 0.56 ± 0.12%. For the same compound, the IC50 in data set [5] (setting [8]) was determined as 550 nM. Moreover, in data set [6] (setting [9]), the viability at 72 h, 10 µM is 0.84 ± 0.26%.
With `CCCCCCCCCCN1C(=Cc2sc3ccccc3[n+]2C)Sc2ccccc21.[I-]` [Dye 2, 3-Methyl-2-((3-decylbenzo[d]thiazol-2(3H)-ylidene)methyl)benzo[d]thiazol-3-ium iodide], the melting point fell in the range of 217 to 218 °C. Moreover, in data set [1], the viability at 10 µM was determined as 0.62 ± 0.79%. Further, in data set [2], the IC50 was determined as 240 nM and the viability at 10 µM worked out at 1.09 ± 0.47%. Also, the selectivity ratio at 72 h in data set [3] (setting [7]) came to 1.1. In addition, the viability at 10 µM in data set [4] (Homo sapiens, 72 h) is 0.62 ± 0.1%. Moreover, the IC50 in data set [5] (setting [8]) is 270 nM. Moreover, the viability at 72 h, 10 µM in data set [6] (setting [9]) turned out to be 0.13 ± 0.43%.
`CN1C(=Cc2sc3ccccc3[n+]2C)Oc2ccccc21.Cc1ccc(S(=O)(=O)[O-])cc1` [Dye 3, 3-Methyl-2-((3-methylbenzo[d]oxazol-2(3H)-ylidene)methyl)benzo[d]thiazol-3-ium 4-methylbenzenesulfonate]: the viability at 10 µM in data set [1] amounted to 3.04 ± 1.08%; in data set [2], 5.81 ± 0.8%; in data set [4] (Homo sapiens, 72 h), 1.81 ± 0.31%. In addition, the IC50 is 90 nM in data set [2]; 480 nM in data set [4] (setting [10]); 430 nM in data set [4] (read-out: IC50 PC-3, PC-3, 72 h incubation, MTT); 7530 nM in data set [5] (setting [8]). Also, in data set [3] (setting [7]), the selectivity ratio at 72 h turned out to be 81.2. In data set [4] (72 h), the “SI PC-3 (selectivity index versus NHDF)” value was 17.2. In addition, the viability at 72 h, 10 µM in data set [6] (setting [9]) turned out to be 23.9 ± 3.05%.
Compound `CN1C(=Cc2n(C)c3ccccc3[n+]2C)Sc2ccccc21.[I-]` [Dye 4, 1,3-Dimethyl-2-((3-methylbenzo[d]thiazol-2(3H)-ylidene)methyl)-1H-benzo[d]imidazol-3-ium iodide] displayed a melting point of 270 to 272 °C. Also, the viability at 10 µM in data set [1] amounted to 21.6 ± 1.33%. In data set [2], the IC50 stood at 230 nM and the viability at 10 µM came out at 7.15 ± 1.08%. The selectivity ratio at 72 h in data set [3] (setting [7]) amounted to 33.6. Also, the IC50 in data set [4] (setting [10]) turned out to be 2850 nM. Besides, the viability at 10 µM in data set [4] (Homo sapiens, 72 h) worked out at 4.09 ± 0.61%. Moreover, in data set [4] (72 h), the “SI PC-3 (selectivity index versus NHDF)” value is listed as 2.8. The IC50 in data set [5] (setting [8]) stood at 7930 nM. Also, in data set [6] (setting [9]), the viability at 72 h, 10 µM was found to be 23.1 ± 1.91%.
Consider `CN1C(=Cc2sc3ccccc3[n+]2C)C=Cc2ccccc21` [Dye 6, 3-Methyl-2-((1-methylquinolin-2(1H)-ylidene)methyl)benzo[d]thiazol-3-ium 4-methylbenzenesulfonate], for which the viability at 10 µM is 2.49 ± 0.32% in data set [1]; 1.93 ± 0.78% in data set [2]; 4.98 ± 1.62% in data set [4] (Homo sapiens, 72 h). The IC50 amounted to 270 nM in data set [2] and 790 nM in data set [5] (setting [8]). The selectivity ratio at 72 h in data set [3] (setting [7]) was 2.9. Further, in data set [6] (setting [9]), the viability at 72 h, 10 µM was determined as 4.28 ± 1.24%.
Take `CCN1C(=Cc2sc3ccc(NC(C)=O)cc3[n+]2CC)Sc2ccccc21.Cc1ccc(S(=O)(=O)[O-])cc1` [Dye 7, 5-Acetamido-3-ethyl-2-((3-ethylbenzo[d]thiazol-2(3H)-ylidene)methyl)benzo[d]thiazol-3-ium 4-methylbenzenesulfonate]: the half-inhibitory concentration (IC50) in data set [1] came to 380 nM; in data set [2], 140 nM; in data set [4] (setting [10]) it was 3560 nM; in data set [5] (setting [8]), 11600 nM. For the same compound, the viability at 10 µM in data set [1] is 11.8 ± 4.3%; in data set [2], 9.89 ± 1.38%; in data set [4] (Homo sapiens, 72 h), 7.97 ± 4%. In data set [1], the “SI MCF-7 (selectivity index versus NHDF)” value amounted to 30.2. Also, in data set [3] (setting [7]), the selectivity ratio at 72 h was determined as 80.5. Besides, the “SI PC-3 (selectivity index versus NHDF)” value in data set [4] (72 h) is on record as 3.3. Also, in data set [6] (setting [9]), the viability at 72 h, 10 µM is 29 ± 4.76%.
For `CCN1C(=Cc2sc3ccc(N)cc3[n+]2CC)Sc2ccccc21` [Dye 8, 5-Amino-3-ethyl-2-((3-ethylbenzo[d]thiazol-2(3H)-ylidene)methyl)benzo[d]thiazol-3-ium iodide], the viability at 10 µM in data set [1] was 6.18 ± 1.48%; in data set [2], 5.21 ± 0.89%; in data set [4] (Homo sapiens, 72 h) it was 4.12 ± 1.71%. Moreover, the results for the IC50 in data set [2] and in data set [5] (setting [8]) were 740 nM and 950 nM, respectively. Besides, the selectivity ratio at 72 h in data set [3] (setting [7]) was found to be 1.3. Further, in data set [6] (setting [9]), the viability at 72 h, 10 µM is 5.52 ± 0.69%.
As to `CCN1C(=Cc2n(CC)c3ccc([N+](=O)[O-])cc3[n+]2CC)Sc2ccccc21.[I-]` [Dye 9, 1,3-Diethyl-2-((3-ethylbenzo[d]thiazol-2(3H)-ylidene)methyl)-5-nitro-1H-benzo[d]imidazol-3-ium iodide], the melting point was 219 to 220 °C. The viability at 10 µM in data set [1] was 52.9 ± 8.99%. Further, in data set [2], the IC50 was determined as 1400 nM and the viability at 10 µM amounted to 16.4 ± 0.81%. Besides, in data set [3] (setting [7]), the selectivity ratio at 72 h worked out at 17.5. The viability at 10 µM in data set [4] (Homo sapiens, 72 h) was 39.5 ± 7.97%. The IC50 in data set [5] (setting [8]) was determined as 24500 nM. Moreover, the viability at 72 h, 10 µM in data set [6] (setting [9]) was found to be 38.2 ± 4.27%.
Turning to `CCN1C(=Cc2sc3cc(N)ccc3[n+]2CC)Sc2ccccc21.[I-]` [Dye 11, 6-Amino-3-ethyl-2-((3-ethylbenzo[d]thiazol-2(3H)-ylidene)methyl)benzo[d]thiazol-3-ium iodide], the concentration for half-maximal inhibition (IC50) in data set [1] is 330 nM; in data set [2] it was 170 nM; in data set [4] (setting [10]), 2100 nM; in data set [5] (setting [8]), 3000 nM. In addition, the viability at 10 µM in data set [1] stood at 7.65 ± 2.8%; in data set [2], 9.6 ± 1.47%; in data set [4] (Homo sapiens, 72 h), 10.5 ± 4.24%. For the same compound, the “SI MCF-7 (selectivity index versus NHDF)” value in data set [1] is 9.0. In data set [3] (setting [7]), the selectivity ratio at 72 h was 17.1. Moreover, in data set [4] (72 h), the “SI PC-3 (selectivity index versus NHDF)” value is reported as 1.4. Further, the viability at 72 h, 10 µM in data set [6] (setting [9]) stood at 16.1 ± 2.46%.
On to `CN1C=C/C(=C/c2ccc3ccccc3[n+]2C)c2ccccc21` [Dye 12, 1-Methyl-4-((1-methylquinolin-2(1H)-ylidene)methyl)quinolin-1-ium 4-methylbenzenesulfonate], for which the viability at 10 µM was found to be 4.81 ± 1.56% in data set [1]; 10.7 ± 0.43% in data set [2]; 9.02 ± 3.29% in data set [4] (Homo sapiens, 72 h). Moreover, the IC50 in data set [2] turned out to be 730 nM; in data set [5] (72 h), 630 nM. In data set [3] (Caco-2), the selectivity ratio at 72 h was 0.9. Moreover, in data set [6], the viability at 72 h, 10 µM stood at 5.72 ± 1.91%.

Source of the values: publication PMC11642940, “A New Demand for Improved Selectivity and Potency of Cyanine Dyes as Antiproliferative Agents Against Colorectal Cancer Cells” (Molecules, 2024).
